The source of these data is patent US8987252B2, “Aryloxy- and heteroaryloxy-substituted tetrahydrobenzazepines and use thereof to block reuptake of norepinephrine, dopamine, and serotonin” (Albany Molecular Research, Inc., priority 2007, dated 2015).

Broadly, the melting point is the temperature of the solid-liquid transition.

Structures are written as SMILES. Counter-ions that a name gives are not always drawn.

`CN1CCC(Oc2ccc3ccccc3c2)c2ccc(-c3cccnn3)cc2C1` (centres unmarked) (as salt: tartrate) [Example 1, 2-methyl-5-(naphthalen-2-yloxy)-8-(pyridazin-3-yl)-2,3,4,5-tetrahydro-1H-benzo[c]azepine] displayed a melting point of 122 to 124 °C.

The compound `CN1CCC(Oc2ccc(Cl)cc2)c2ccc(-c3cccnn3)cc2C1` (centres unmarked) (as salt: tartrate) [Example 2, 5-(4-chlorophenoxy)-2-methyl-8-(pyridazin-3-yl)-2,3,4,5-tetrahydro-1H-benzo[c]azepine] came in with a melting point of 106 to 108 °C.

Consider `Cc1ccc(OC2CCN(C)Cc3cc(-c4cccnn4)ccc32)cc1` (centres unmarked) (as salt: tartrate) [Example 3, 2-methyl-8-(pyridazin-3-yl)-5-(p-tolyloxy)-2,3,4,5-tetrahydro-1H-benzo[c]azepine], for which the melting point is 104 to 106 °C.

In the case of `CN1CCC(Oc2ccc(OC(F)(F)F)cc2)c2ccc(-c3cccnn3)cc2C1` (centres unmarked) (as salt: tartrate) [Example 4, 2-methyl-8-(pyridazin-3-yl)-5-(4-(trifluoromethoxy)phenoxy)-2,3,4,5-tetrahydro-1H-benzo[c]azepine], the melting point lay in the range of 104 to 106 °C.

On to `CN1CCC(Oc2cc(F)cc(F)c2)c2ccc(-c3cccnn3)cc2C1` (centres unmarked) (as salt: tartrate) [Example 5, 5-(3,5-difluorophenoxy)-2-methyl-8-(pyridazin-3-yl)-2,3,4,5-tetrahydro-1H-benzo[c]azepine], for which the melting point was in the range of 94 to 96 °C.

`CN1CCC(Oc2ccc(C#N)cc2)c2ccc(-c3cccnn3)cc2C1` (centres unmarked) (as salt: tartrate) [Example 6, 4-(2-Methyl-8-(pyridazin-3-yl)-2,3,4,5-tetrahydro-1H-benzo[c]azepin-5-yloxy)benzonitrile]: the melting point fell in the range of 94 to 96 °C.

For `CN1CCC(Oc2ccc(Cl)c(Cl)c2)c2ccc(-c3cccnn3)cc2C1` (centres unmarked) (as salt: tartrate) [Example 7, 5-(3,4-Dichlorophenoxy)-2-methyl-8-(pyridazin-3-yl)-2,3,4,5-tetrahydro-1H-benzo[c]azepine], the melting point lay within 102 to 104 °C.

On to `CN1CCC(Oc2ccc(F)c(F)c2)c2ccc(-c3cccnn3)cc2C1` (centres unmarked) (as salt: tartrate) [Example 8, 5-(3,4-Difluorophenoxy)-2-methyl-8-(pyridazin-3-yl)-2,3,4,5-tetrahydro-1H-benzo[c]azepine], for which the melting point lay in the range of 100 to 102 °C.

On to `CN1CCC(Oc2ccc(F)cc2F)c2ccc(-c3cccnn3)cc2C1` (centres unmarked) (as salt: tartrate) [Example 9, 5-(2,4-Difluorophenoxy)-2-methyl-8-(pyridazin-3-yl)-2,3,4,5-tetrahydro-1H-benzo[c]azepine], for which the melting point lay in the range of 98 to 100 °C.

`CN1CCC(Oc2ccccc2)c2ccc(-c3cccnn3)cc2C1` (centres unmarked) (as salt: tartrate) [Example 10, 2-methyl-5-phenoxy-8-(pyridazin-3-yl)-2,3,4,5-tetrahydro-1H-benzo[c]azepine] registered a melting point of 98 to 100 °C.

Compound `CN1CCC(Oc2cccnc2)c2ccc(-c3cccnn3)cc2C1` (centres unmarked) (as salt: tartrate) [Example 11, 2-methyl-8-(pyridazin-3-yl)-5-(pyridin-3-yloxy)-2,3,4,5-tetrahydro-1H-benzo[c]azepine] displayed a melting point of 120 to 123 °C.

In the case of `CN1CCC(Oc2ccccc2F)c2ccc(-c3cccnn3)cc2C1` (centres unmarked) (as salt: tartrate) [Example 12, 5-(2-fluorophenoxy)-2-methyl-8-(pyridazin-3-yl)-2,3,4,5-tetrahydro-1H-benzo[c]azepine], the melting point was in the range of 96 to 98 °C.

The compound `CN1CCC(Oc2cccc(F)c2)c2ccc(-c3cccnn3)cc2C1` (centres unmarked) (as salt: tartrate) [Example 13, 5-(3-fluorophenoxy)-2-methyl-8-(pyridazin-3-yl)-2,3,4,5-tetrahydro-1H-benzo[c]azepine] registered a melting point of 96 to 98 °C.

Turning to `CN1CCC(Oc2cc(F)cc(F)c2)c2ccc(-c3cccnn3)cc2C1` (centres unmarked) (as salt: tartrate) [Example 14, 5-(3,5-difluorophenoxy)-2-methyl-8-(pyridazin-3-yl)-2,3,4,5-tetrahydro-1H-benzo[c]azepine], the melting point was 120 to 122 °C.

Compound `CN1CCC(Oc2cccc3ccccc23)c2ccc(-c3cccnn3)cc2C1` (centres unmarked) (as salt: tartrate) [Example 15, 2-Methyl-5-(naphthalen-1-yloxy)-8-(pyridazin-3-yl)-2,3,4,5-tetrahydro-1H-benzo[c]azepine] returned a melting point of 100 to 102 °C.

In turn, `CN1CCC(Oc2ccc3ccccc3c2)c2ccc(-c3cccnn3)cc2C1` (centres unmarked) (as salt: tartrate) [Example 18, 5-(naphthalen-2-yloxy)-2-methyl-8-(pyridazin-3-yl)-2,3,4,5-tetrahydro-1H-benzo[c]azepine] came in with a melting point of 120 to 122 °C.

For the compound `Cc1ccc(-c2ccc3c(c2)CNCCC3Oc2ccccc2)nn1` (centres unmarked) (as salt: tartrate) [Example 32, 8-(6-methylpyridazin-3-yl)-5-phenoxy-2,3,4,5-tetrahydro-1H-benzo[c]azepine], the melting point was 115 to 118 °C.

Compound `CN1CCC(Oc2ccc3cccnc3c2)c2ccc(-c3cccnn3)cc2C1` (centres unmarked) (as salt: tartrate) [Example 33, 2-methyl-8-(pyridazin-3-yl)-5-(quinolin-7-yloxy)-2,3,4,5-tetrahydro-1H-benzo[c]azepine] had a melting point of 120 to 122 °C.

The compound `CN1CCC(Oc2ccccc2Cl)c2ccc(-c3cccnn3)cc2C1` (centres unmarked) (as salt: tartrate) [Example 34, 5-(2-chlorophenoxy)-2-methyl-8-(pyridazin-3-yl)-2,3,4,5-tetrahydro-1H-benzo[c]azepine] showed a melting point of 100 to 102 °C.

Consider `CN1CCC(Oc2ccccc2Cl)c2ccc(-c3cccnn3)cc2C1` (centres unmarked) (as salt: tartrate) [Example 35, 5-(2-chlorophenoxy)-2-methyl-8-(pyridazin-3-yl)-2,3,4,5-tetrahydro-1H-benzo[c]azepine], for which the melting point was 104 to 106 °C.

Regarding `CN1CCC(Oc2ccccc2)c2ccc(-c3ncccn3)cc2C1` (centres unmarked) (as salt: tartrate) [Example 49, 2-Methyl-5-phenoxy-8-(pyrimidin-2-yl)-2,3,4,5-tetrahydro-1H-benzo[c]azepine], the melting point lay in the range of 108 to 110 °C.

In turn, `CN1CCC(Oc2cccc(F)c2F)c2ccc(-c3cccnn3)cc2C1` (centres unmarked) (as salt: tartrate) [Example 51, 5-(2,3-difluorophenoxy)-2-methyl-8-(pyridazin-3-yl)-2,3,4,5-tetrahydro-1H-benzo[c]azepine] yielded a melting point of 112 to 114 °C.

Regarding `CN1CCC(Oc2cccc(C#N)c2)c2ccc(-c3cccnn3)cc2C1` (centres unmarked) (as salt: tartrate) [Example 52, 5-(3-cyanophenoxy)-2-methyl-8-(pyridazin-3-yl)-2,3,4,5-tetrahydro-1H-benzo[c]azepine], the melting point lay within 113 to 115 °C.

In the case of `CN1CCC(Oc2ccc(C#N)cc2)c2ccc(-c3cccnn3)cc2C1` (centres unmarked) (as salt: tartrate) [Example 53, 5-(4-cyanophenoxy)-2-methyl-8-(pyridazin-3-yl)-2,3,4,5-tetrahydro-1H-benzo[c]azepine], the melting point is 110 to 112 °C.

In turn, `CN1CCC(Oc2cc(F)ccc2F)c2ccc(-c3cccnn3)cc2C1` (centres unmarked) (as salt: tartrate) [Example 54, 5-(2,5-difluorophenoxy)-2-methyl-8-(pyridazin-3-yl)-2,3,4,5-tetrahydro-1H-benzo[c]azepine] displayed a melting point of 102 to 104 °C.

Compound `CN1CCC(Oc2c(F)cccc2F)c2ccc(-c3cccnn3)cc2C1` (centres unmarked) (as salt: tartrate) [Example 55, 5-(2,6-difluorophenoxy)-2-methyl-8-(pyridazin-3-yl)-2,3,4,5-tetrahydro-1H-benzo[c]azepine] registered a melting point of 98 to 100 °C.
